Assay results reported in patent US10392368B2, “Pyrazolo and triazolo bicyclic compounds as JAK kinase inhibitors” (THERAVANCE BIOPHARMA R&D IP, LLC, priority 2017, dated 2019).
Read-outs that look alike come from different tables or passages of the source.

What was measured:
[1] = target: T1, JAK1 (Homo sapiens, UniProt P23458); assay: Biochemical JAK1 kinase assay (LanthaScreen); conditions: for Ki: read-out: JAK 1 (pKi) (converted)
T1 construct: GST; purchased Life Technologies
How it was run: (§1)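 TR-FRET read-out: terbium anti-pSTAT1 (pTyr701) antibody, 2 nM, with 10 mM EDTA quench, emission ratio 520/495 nm. GST-JAK phosphorylates GFP-STAT1 peptide for 1 h at ambient temperature after 1 h compound pre-incubation. pIC50 from dose-response converted to pKi by Cheng-Prusoff.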

[2] = target: T2, JAK2 (Homo sapiens, UniProt O60674); assay: Biochemical JAK2 kinase assay (LanthaScreen); conditions: for Ki: read-out: JAK 2 (pKi) (converted)
T2 construct: GST; purchased Life Technologies
T2 sequence (O60674 whole entry): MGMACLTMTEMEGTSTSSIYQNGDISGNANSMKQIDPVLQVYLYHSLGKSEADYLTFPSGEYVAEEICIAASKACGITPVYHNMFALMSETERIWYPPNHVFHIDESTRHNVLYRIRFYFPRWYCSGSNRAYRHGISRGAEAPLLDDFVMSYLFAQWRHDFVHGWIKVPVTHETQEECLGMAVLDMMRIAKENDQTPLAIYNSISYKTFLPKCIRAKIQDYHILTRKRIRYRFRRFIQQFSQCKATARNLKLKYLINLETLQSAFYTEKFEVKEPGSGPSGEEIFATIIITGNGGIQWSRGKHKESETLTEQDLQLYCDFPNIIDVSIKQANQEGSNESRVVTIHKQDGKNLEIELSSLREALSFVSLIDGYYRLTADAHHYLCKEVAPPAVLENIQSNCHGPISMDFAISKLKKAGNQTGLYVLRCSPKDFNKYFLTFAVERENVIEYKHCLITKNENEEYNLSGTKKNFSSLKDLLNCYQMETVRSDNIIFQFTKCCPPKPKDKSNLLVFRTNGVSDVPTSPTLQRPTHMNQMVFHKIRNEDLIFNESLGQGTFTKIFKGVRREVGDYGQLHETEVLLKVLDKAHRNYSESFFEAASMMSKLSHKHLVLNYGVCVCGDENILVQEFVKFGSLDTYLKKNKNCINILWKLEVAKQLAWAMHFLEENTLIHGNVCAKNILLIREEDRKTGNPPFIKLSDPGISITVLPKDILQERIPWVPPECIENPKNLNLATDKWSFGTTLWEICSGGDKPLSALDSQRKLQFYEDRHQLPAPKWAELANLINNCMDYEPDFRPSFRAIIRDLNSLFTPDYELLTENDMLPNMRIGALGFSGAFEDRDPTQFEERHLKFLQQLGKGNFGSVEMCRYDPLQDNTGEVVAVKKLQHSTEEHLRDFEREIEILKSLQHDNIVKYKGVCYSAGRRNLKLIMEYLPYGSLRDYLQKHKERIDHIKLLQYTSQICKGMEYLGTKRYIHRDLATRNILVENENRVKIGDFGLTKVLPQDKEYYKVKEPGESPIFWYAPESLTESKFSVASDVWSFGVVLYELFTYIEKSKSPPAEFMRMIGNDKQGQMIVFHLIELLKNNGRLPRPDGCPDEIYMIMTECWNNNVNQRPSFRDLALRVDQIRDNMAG
How it was run: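 pKi values derive from pIC50 via Cheng-Prusoff, with IC50 from a 4-parameter fit of percent-inhibition TR-FRET data using Tb-anti-pSTAT1 (pTyr701) detection. Compound, GST-JAK2 and GFP-STAT1 substrate were pre-incubated 1 h, then ATP started a 1 h ambient reaction (HEPES pH 7.5, 10 mM MgCl2, 1% DMSO).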

[3] = target: T3, Tyk2 (Homo sapiens, UniProt P29597); assay: Biochemical Tyk2 kinase assay (LanthaScreen); conditions: for Ki: read-out: Tyk 2 (pKi) (converted)
T3 construct: GST; purchased Life Technologies
T3 sequence (P29597 whole entry): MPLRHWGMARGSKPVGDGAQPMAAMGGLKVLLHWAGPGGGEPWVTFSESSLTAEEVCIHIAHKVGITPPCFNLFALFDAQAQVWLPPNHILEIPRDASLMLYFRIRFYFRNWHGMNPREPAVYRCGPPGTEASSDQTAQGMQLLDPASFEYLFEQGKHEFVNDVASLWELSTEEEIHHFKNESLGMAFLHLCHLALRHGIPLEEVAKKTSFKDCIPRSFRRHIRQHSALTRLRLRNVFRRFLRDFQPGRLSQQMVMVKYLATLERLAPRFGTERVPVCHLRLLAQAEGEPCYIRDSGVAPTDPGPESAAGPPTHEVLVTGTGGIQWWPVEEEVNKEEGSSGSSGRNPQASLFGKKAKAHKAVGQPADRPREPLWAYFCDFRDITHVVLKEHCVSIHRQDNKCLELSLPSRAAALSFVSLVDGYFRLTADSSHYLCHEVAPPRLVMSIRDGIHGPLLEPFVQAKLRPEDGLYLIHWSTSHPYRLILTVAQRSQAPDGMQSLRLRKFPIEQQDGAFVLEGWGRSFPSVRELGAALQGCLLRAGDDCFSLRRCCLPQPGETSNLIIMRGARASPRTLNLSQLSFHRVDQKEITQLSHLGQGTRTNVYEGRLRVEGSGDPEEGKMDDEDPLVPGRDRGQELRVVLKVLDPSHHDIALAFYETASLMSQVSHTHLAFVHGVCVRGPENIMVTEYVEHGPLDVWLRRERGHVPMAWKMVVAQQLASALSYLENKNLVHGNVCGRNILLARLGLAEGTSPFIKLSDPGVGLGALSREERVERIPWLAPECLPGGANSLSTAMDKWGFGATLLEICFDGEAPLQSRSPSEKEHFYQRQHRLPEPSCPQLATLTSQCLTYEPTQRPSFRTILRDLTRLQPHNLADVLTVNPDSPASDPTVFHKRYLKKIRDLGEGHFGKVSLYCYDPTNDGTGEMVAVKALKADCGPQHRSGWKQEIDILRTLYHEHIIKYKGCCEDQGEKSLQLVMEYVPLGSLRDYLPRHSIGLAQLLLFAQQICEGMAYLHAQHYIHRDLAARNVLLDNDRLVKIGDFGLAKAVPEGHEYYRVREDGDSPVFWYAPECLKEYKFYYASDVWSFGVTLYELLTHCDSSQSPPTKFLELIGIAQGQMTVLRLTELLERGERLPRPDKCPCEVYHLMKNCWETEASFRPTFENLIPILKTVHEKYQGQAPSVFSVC
How it was run: as §1

[4] = tested on: IL-2 stimulated pSTAT5 in Tall-1 T cells; assay: Cellular JAK3 potency assay: inhibition of IL-2 stimulated pSTAT5 in Tall-1 T cells; assay type: cell-based, human; conditions: for IC50: Homo sapiens, read-out: Tall-1 (pIC50) (converted)
How it was run: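 Tall-1 human T cells were preincubated with compound for 1 h at 37° C, then stimulated with IL-2 (300 ng/ml final) for 30 min. STAT5 phosphorylation in lysates was read by AlphaLisa bead emission, and IC50 from inhibition curves is given as pIC50 (mean±SD).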

[5] = target: T4, JAK3 (Homo sapiens, UniProt P52333); assay: Biochemical JAK3 kinase assay (LanthaScreen); set-up: GST; purchased Life Technologies; conditions: for Ki: read-out: JAK 3 (pKi) (converted); for JAK3 (pKi)-JAK1 (pKi): selectivity: difference of pKi JAK3 and pKi JAK1
T4 sequence (P52333 1-1124): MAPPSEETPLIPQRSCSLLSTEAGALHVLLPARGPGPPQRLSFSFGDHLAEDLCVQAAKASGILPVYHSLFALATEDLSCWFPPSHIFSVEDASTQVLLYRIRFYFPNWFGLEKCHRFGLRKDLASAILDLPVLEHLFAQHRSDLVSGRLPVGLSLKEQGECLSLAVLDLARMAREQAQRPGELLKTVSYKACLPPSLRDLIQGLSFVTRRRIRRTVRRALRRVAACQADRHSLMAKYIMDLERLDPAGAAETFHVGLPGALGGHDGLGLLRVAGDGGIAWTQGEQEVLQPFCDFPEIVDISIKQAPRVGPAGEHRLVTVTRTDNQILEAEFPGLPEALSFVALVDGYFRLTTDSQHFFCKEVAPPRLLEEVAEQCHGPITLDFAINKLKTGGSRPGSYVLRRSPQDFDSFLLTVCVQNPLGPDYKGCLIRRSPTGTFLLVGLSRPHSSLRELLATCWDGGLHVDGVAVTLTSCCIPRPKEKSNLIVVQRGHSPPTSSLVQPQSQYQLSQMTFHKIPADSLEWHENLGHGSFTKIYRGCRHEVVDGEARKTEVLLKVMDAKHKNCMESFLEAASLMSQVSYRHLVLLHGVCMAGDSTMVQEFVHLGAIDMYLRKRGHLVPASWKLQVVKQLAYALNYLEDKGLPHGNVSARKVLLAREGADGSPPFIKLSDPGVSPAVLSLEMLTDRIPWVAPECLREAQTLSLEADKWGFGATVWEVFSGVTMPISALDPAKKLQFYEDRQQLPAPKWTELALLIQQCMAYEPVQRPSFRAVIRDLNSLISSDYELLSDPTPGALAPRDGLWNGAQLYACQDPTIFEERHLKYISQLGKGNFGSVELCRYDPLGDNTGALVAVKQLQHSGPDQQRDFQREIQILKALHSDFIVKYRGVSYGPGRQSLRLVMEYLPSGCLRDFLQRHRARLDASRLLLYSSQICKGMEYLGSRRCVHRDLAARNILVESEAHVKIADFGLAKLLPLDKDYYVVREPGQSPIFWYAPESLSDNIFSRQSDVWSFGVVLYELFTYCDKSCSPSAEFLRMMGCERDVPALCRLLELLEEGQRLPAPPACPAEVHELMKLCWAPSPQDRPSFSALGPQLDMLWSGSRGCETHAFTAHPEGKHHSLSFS
How it was run: as §1

[6] = TALL-1, IL-2 stimulated pSTAT5 in Tall-1 T cells
[7] = IL-2 stimulated pSTAT5 in Tall-1 T cells

T1 sequence (P23458 whole entry): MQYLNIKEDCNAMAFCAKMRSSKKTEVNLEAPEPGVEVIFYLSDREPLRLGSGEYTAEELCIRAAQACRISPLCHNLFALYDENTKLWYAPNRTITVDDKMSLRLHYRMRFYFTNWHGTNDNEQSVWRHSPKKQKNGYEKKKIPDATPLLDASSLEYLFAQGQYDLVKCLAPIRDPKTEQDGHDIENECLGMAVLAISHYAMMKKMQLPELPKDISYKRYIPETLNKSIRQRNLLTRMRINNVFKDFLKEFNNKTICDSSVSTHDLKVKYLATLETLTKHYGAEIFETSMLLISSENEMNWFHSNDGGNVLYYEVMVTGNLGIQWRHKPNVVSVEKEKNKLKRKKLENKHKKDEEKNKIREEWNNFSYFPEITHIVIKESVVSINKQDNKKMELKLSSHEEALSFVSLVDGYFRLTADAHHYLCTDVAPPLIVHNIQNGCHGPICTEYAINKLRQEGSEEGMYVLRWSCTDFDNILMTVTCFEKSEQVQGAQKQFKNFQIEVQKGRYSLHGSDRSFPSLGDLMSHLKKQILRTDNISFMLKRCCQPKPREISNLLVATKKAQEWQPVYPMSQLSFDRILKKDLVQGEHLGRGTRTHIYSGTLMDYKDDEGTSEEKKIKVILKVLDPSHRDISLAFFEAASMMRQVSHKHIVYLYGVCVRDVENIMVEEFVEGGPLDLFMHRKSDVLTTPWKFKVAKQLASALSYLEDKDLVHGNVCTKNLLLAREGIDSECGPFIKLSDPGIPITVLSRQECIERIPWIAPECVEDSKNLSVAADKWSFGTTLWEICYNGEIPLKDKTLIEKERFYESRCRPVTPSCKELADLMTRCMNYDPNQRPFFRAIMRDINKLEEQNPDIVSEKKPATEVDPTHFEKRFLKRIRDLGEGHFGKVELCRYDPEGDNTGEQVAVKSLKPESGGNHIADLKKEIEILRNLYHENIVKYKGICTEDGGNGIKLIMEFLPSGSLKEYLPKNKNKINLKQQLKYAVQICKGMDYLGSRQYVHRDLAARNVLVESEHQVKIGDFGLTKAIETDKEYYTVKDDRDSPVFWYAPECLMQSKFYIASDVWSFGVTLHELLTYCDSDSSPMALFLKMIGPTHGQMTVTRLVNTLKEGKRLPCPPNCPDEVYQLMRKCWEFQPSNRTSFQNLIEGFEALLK

## CN(C)C/C=C/C(=O)N1CC(C)(COc2cc(-c3ccc(O)cc3)cc3[nH]ncc23)C1 [Compound 3-7]
[1]
  Ki: > 0.1 µM
[2]
  Ki: 0.01 to 0.1 µM
[3]
  Ki: > 0.1 µM
[4]; [6]
  IC50: 0.0316 to 0.2 µM
[5]
  Ki: < 0.0001 µM
  JAK3 (pKi)-JAK1 (pKi): A (a value of 3 or above)

## C=CC(=O)N1CC(C)(COc2cc(-c3ccc(O)cc3)cc3[nH]ncc23)C1 [Compound 3-8]
[1]
  JAK 1 (pKi): E (a pKi value of 7 or below (Ki of 100 nM or above))
[2]
  JAK 2 (pKi): E (a pKi value of 7 or below (Ki of 100 nM or above))
[3]
  Tyk 2 (pKi): E (a pKi value of 7 or below (Ki of 100 nM or above))
[4]; [7]
  Tall-1 (pIC50): A (a pIC50 value≥7.5 (IC50≤32 nM))
[5]
  JAK 3 (pKi): B (a pKi value between 9 and 10 (Ki between 1 nM and 0.1 nM))
  JAK3 (pKi)-JAK1 (pKi): A (a value of 3 or above)

## CCC1(COc2cc(-c3ccc(O)cc3)cc3[nH]ncc23)CN(C(=O)/C=C/CN(C)C)C1 [Compound 3-13]
[1]
  JAK 1 (pKi): E (a pKi value of 7 or below (Ki of 100 nM or above))
[2]
  JAK 2 (pKi): D (a pKi value between 7 and 8 (Ki between 100 nM and 10 nM))
[3]
  Tyk 2 (pKi): E (a pKi value of 7 or below (Ki of 100 nM or above))
[4]; [7]
  Tall-1 (pIC50): A (a pIC50 value≥7.5 (IC50≤32 nM))
[5]
  JAK 3 (pKi): B (a pKi value between 9 and 10 (Ki between 1 nM and 0.1 nM))
  JAK3 (pKi)-JAK1 (pKi): A (a value of 3 or above)

## CCC1(COc2cc(-c3ccc(O)c(Cl)c3)cc3[nH]ncc23)CN(C(=O)/C=C/CN(C)C)C1 [Compound 3-15]
[1]
  Ki: > 0.1 µM
[2]
  Ki: > 0.1 µM
[3]
  Ki: > 0.1 µM
[4]; [6]
  IC50: 0.0316 to 0.2 µM
[5]
  Ki: < 0.0001 µM
  JAK3 (pKi)-JAK1 (pKi): A (a value of 3 or above)

## CCC1(COc2cc(-c3ccc(O)c(F)c3)cc3[nH]ncc23)CN(C(=O)/C=C/CN(C)C)C1 [Compound 3-17]
[1]
  JAK 1 (pKi): E (a pKi value of 7 or below (Ki of 100 nM or above))
[2]
  JAK 2 (pKi): D (a pKi value between 7 and 8 (Ki between 100 nM and 10 nM))
[3]
  Tyk 2 (pKi): E (a pKi value of 7 or below (Ki of 100 nM or above))
[4]; [7]
  Tall-1 (pIC50): A (a pIC50 value≥7.5 (IC50≤32 nM))
[5]
  JAK 3 (pKi): A (a pKi value≥10 (Ki≤0.1 nM))
  JAK3 (pKi)-JAK1 (pKi): A (a value of 3 or above)

## CN(C)C/C=C/C(=O)N1CC(C#N)(COc2cc(-c3ccc(O)cc3)cc3[nH]ncc23)C1 [Compound 3-19]
[1]
  JAK 1 (pKi): E (a pKi value of 7 or below (Ki of 100 nM or above))
[2]
  JAK 2 (pKi): E (a pKi value of 7 or below (Ki of 100 nM or above))
[3]
  Tyk 2 (pKi): E (a pKi value of 7 or below (Ki of 100 nM or above))
[4]; [7]
  Tall-1 (pIC50): B (a pIC50 value between 6.7 (included) and 7.5 (IC50 between 200 nM and 32 nM))
[5]
  JAK 3 (pKi): B (a pKi value between 9 and 10 (Ki between 1 nM and 0.1 nM))
  JAK3 (pKi)-JAK1 (pKi): A (a value of 3 or above)

## C=CC(=O)N1CC(C#N)(COc2cc(-c3ccc(O)cc3)cc3[nH]ncc23)C1 [Compound 3-20]
[1]
  JAK 1 (pKi): E (a pKi value of 7 or below (Ki of 100 nM or above))
[2]
  JAK 2 (pKi): D (a pKi value between 7 and 8 (Ki between 100 nM and 10 nM))
[3]
  Tyk 2 (pKi): E (a pKi value of 7 or below (Ki of 100 nM or above))
[4]; [7]
  Tall-1 (pIC50): B (a pIC50 value between 6.7 (included) and 7.5 (IC50 between 200 nM and 32 nM))
[5]
  JAK 3 (pKi): B (a pKi value between 9 and 10 (Ki between 1 nM and 0.1 nM))
  JAK3 (pKi)-JAK1 (pKi): B (a value of 2.3 to 3)

## CN(C)C/C=C/C(=O)N1CC(C#N)(COc2cc(-c3ccc(O)c(Cl)c3)cc3[nH]ncc23)C1 [Compound 3-21]
[1]
  Ki: > 0.1 µM
[2]
  Ki: > 0.1 µM
[3]
  Ki: > 0.1 µM
[4]; [6]
  IC50: < 0.0316 µM
[5]
  Ki: 0.0001 to 0.001 µM
  JAK3 (pKi)-JAK1 (pKi): A (a value of 3 or above)

## C=CC(=O)N1CC(C#N)(COc2cc(-c3ccc(O)c(Cl)c3)cc3[nH]ncc23)C1 [Compound 3-22]
[1]
  Ki: > 0.1 µM
[2]
  Ki: > 0.1 µM
[3]
  Ki: > 0.1 µM
[4]; [7]
  IC50: 0.0316 to 0.2 µM
[5]
  Ki: < 0.0001 µM
  JAK3 (pKi)-JAK1 (pKi): A (a value of 3 or above)
